Test results from patent publication US12419305B2, “Antimicrobial compositions” (Firmenich SA, priority 2018, dated 2025).

Tests used:
S. haemolyticus 114126 = experiment: BCT test (bacterial contact time), 120 s, log reduction / effect fraction; CI by Compusyn; format: cell-based; conditions: Staphylococcus haemolyticus, 114126, 2 min, contact 120 s, 25% EtOH
Experimental: S. haemolyticus: Suspensions of the S. haemolyticus 114126 strain, isolated from skin, were prepared as follows: Stock cultures (stored at −80° C.) were thawed and sub-cultured onto TSA-TW80 agar plate media, and incubated at 37° C. for 24 h to obtain single colonies. Single colonies of the primary cultures were streaked onto fresh TSA-TW80 plates and incubated at 37° C. for 24 h to prepare secondary cultures. Single colonies of secondary cultures were picked and used to inoculate 50 mL of BHI-TW80 broth. The inoculated broth was incubated at 37° C. at 180 rpm for 18 h. Aliquots (0.5 ml) of the 18 h culture were inoculated into 50 ml of fresh BHI-TW80 broth, and incubated at 37° C. at 180 rpm for approximately 3 hours. When the OD 600 nm value of the broth reached 1-2, cells were harvested by centrifugation at 5000 rpm for 10 min, and then resuspended in fresh BHI-TW80 broth at a concentration of 1-5×10^8 CFU/mL. This suspension was used as the bacterial suspension for the BCT test.
BCT Test: Test compositions at a range of concentrations (either combinations of more than one perfume ingredient, and comparative compositions comprising the single perfume ingredients) were prepared in ethanol. Five replicates of each test composition were added into 96-well microtiter plates (120 μl per well), with row B containing control compositions containing the ethanol solution alone. 120 μl of bacterial cell suspensions at a concentration of approximately 1×10^8 bacteria per mL (as prepared above) were added to each well of the microtiter plate. The bacterial suspensions were incubated with the test solutions for 45, 60, or 120 seconds. Following the incubation of the bacterial suspensions with the test solutions, serial dilutions of the bacterial suspensions were generated (three serial 1:10 dilutions, followed by 17 serial 1:2 dilutions), in multiwell microtiter plates.
Each plate was sealed and incubated at 37° C. under agitation (180 rpm). After incubation, the turbidity of the wells (OD600 nm) was determined using a Tecan microplate reader. Turbid wells were regarded as positive growth, due to the presence of viable cells. The total number of viable cells (log CFU) for each sample was calculated. And the log reduction for each test composition at the final concentration (dose) was calculated against the control sample of the ethanol solution.
Determination of Synergy via the Combination Index (CI): The CI was calculated using Compusyn software (ComboSyn, Inc., as created by Dr. Dorothy Chou in 2005), according to the manufacturer's instructions. The concentration of each test composition (combinations of more than one perfume ingredient, and comparative compositions comprising the single perfume ingredients used to generate the combination) and their corresponding effect fraction was entered, and the corresponding CI calculated.
When the calculated CI values were less than 0.9, the combination of perfume ingredients was regarded as having synergistic effect. When the calculated CI was between 1.0 a 0.9, the combination of perfume ingredients was regarded as having an additive effect. When the calculated CI was greater than 1.0, the combination of perfume ingredients was regarded as having an antagonistic effect.

E. coli ATCC 10536 = experiment: BCT test (bacterial contact time), 45 s, log reduction / effect fraction; CI by Compusyn; format: cell-based, Escherichia coli
Outline: (§1)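 Ethanol solutions of ingredient blends and single ingredients, 5 replicates; bacteria ~1×10^8/mL added 1:1; contact 45 or 60 s as listed; three 1:10 then 17 1:2 dilutions; regrowth 37° C, OD600; viable log CFU → log reduction vs ethanol. CI <0.9 = synergy.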

S. aureus ATCC 6538 = experiment: BCT test (bacterial contact time), 60 s, log reduction / effect fraction; CI by Compusyn; format: cell-based, Staphylococcus aureus; conditions: Staphylococcus aureus, ATCC6538, 1 min, 60 s, in 25% EtOH
Outline: as §1

[1] = test system: Pseudomonas aeruginosa ATCC 15442; experiment: as above; format: cell-based; conditions: Pseudomonas aeruginosa, ATCC15442, 1 min, BCT 60 s, in 25% EtOH
Outline: as §1

[2] = test system: Salmonella enterica ATCC 10708; experiment: as above; format: cell-based; conditions: Salmonella enterica, ATCC10708, 1 min, BCT 60 s, in 25% EtOH
Outline: as §1

Work on `O=c1ccc2ccccc2o1` [Coumarine, 2H-chromen-2-one] yielded a log reduction at 0.5 % strength (S. haemolyticus 114126; dose 0.5% w/v) of 0, a log reduction at 0.75 % strength (S. haemolyticus 114126; dose 0.75% w/v) of 0.7 and a log reduction at 1 % strength (S. haemolyticus 114126; dose 1.0% w/v) of 1.7. The log reduction at 1.25 % strength (S. haemolyticus 114126; dose 1.25% w/v) was 6.3, the log reduction at 1.5 % strength (S. haemolyticus 114126; dose 1.5% w/v) was 7.5 and the log reduction at 0.5 % strength (E. coli ATCC 10536; Escherichia coli, ATCC10536, 45 s, dose 0.500 % w/v, 45 s, in 20% EtOH) was -0.1. The log reduction at 0.6 % strength (E. coli ATCC 10536; Escherichia coli, ATCC10536, 45 s, dose 0.600 % w/v, 45 s, in 20% EtOH, read-out: Log reduction) was 0.2, the log reduction at 0.65 % strength (E. coli ATCC 10536; Escherichia coli, ATCC10536, 45 s, dose 0.650 % w/v, 45 s, in 20% EtOH) was 0.5 and the log reduction at 0.7 % strength (E. coli ATCC 10536; Escherichia coli, ATCC10536, 45 s, dose 0.700 % w/v, 45 s, in 20% EtOH) was 2.8. For the same compound, the log reduction at 0.8 % strength (E. coli ATCC 10536; Escherichia coli, ATCC10536, 45 s, dose 0.800 % w/v, 45 s, in 20% EtOH) was 7.3, the log reduction at 0.5 % strength (S. aureus ATCC 6538; dose 0.500 % w/v, read-out: Log reduction) was -0.1 and the log reduction at 0.75 % strength (S. aureus ATCC 6538; dose 0.750 % w/v, read-out: Log reduction) was 0.4. For the same compound, the log reduction at 0.875 % strength (S. aureus ATCC 6538; dose 0.875 % w/v) was 0.8, the log reduction at 1 % strength (S. aureus ATCC 6538; dose 1.000 % w/v, read-out: Log reduction) was 2.1 and the log reduction at 1.25 % strength (S. aureus ATCC 6538; dose 1.250 % w/v) was 7. For the same compound, the log reduction at 0.3 % strength ([1]; Dose 0.3 % w/v, read-out: Log reduction) was 0.4, the log reduction at 0.35 % strength ([1]; Dose 0.35 % w/v) was 0.4 and the log reduction at 0.4 % strength ([1]; Dose 0.4 % w/v, read-out: Log reduction) was 0.7. For the same compound, the log reduction at 0.45 % strength ([1]; Dose 0.45 % w/v, read-out: Log reduction) was 1.2, the log reduction at 0.5 % strength ([1]; Dose 0.5 % w/v) was 2.9 and the log reduction at 0.3 % strength ([2]; Dose 0.300 % w/v) was 0.2. The log reduction at 0.4 % strength ([2]; Dose 0.400 % w/v) was 3, the log reduction at 0.45 % strength ([2]; Dose 0.450 % w/v) was 5.1 and the log reduction at 0.5 % strength ([2]; Dose 0.500 % w/v) was 7.5. For the same compound, the log reduction at 0.6 % strength ([2]; Dose 0.600 % w/v) was 7.5.

With `CCCCCCC1CCC(=O)O1` (centres unmarked) [Decal] the log reduction at 0.1 % strength (S. haemolyticus 114126; dose 0.1% w/v) was 0.5, the log reduction at 0.125 % strength (S. haemolyticus 114126; dose 0.125% w/v) was 0.7 and the log reduction at 0.15 % strength (S. haemolyticus 114126; dose 0.15% w/v) was 1.2. The log reduction at 0.175 % strength (S. haemolyticus 114126; dose 0.175% w/v, read-out: Log reduction) was 3.2, the log reduction at 0.2 % strength (S. haemolyticus 114126; dose 0.2% w/v) was 4.5 and the log reduction at 0.05 % strength (E. coli ATCC 10536; Escherichia coli, ATCC10536, 45 s, dose 0.050 % w/v, 45 s, in 20% EtOH) was 0.1. For the same compound, the log reduction at 0.05 % strength (E. coli ATCC 10536; Escherichia coli, ATCC10536, 45 s, dose 0.05% w/v, contact 45 s, 20% EtOH) was 0, the log reduction at 0.06 % strength (E. coli ATCC 10536; Escherichia coli, ATCC10536, 45 s, dose 0.060 % w/v, 45 s, in 20% EtOH) was 0.7 and the log reduction at 0.06 % strength (E. coli ATCC 10536; Escherichia coli, ATCC10536, 45 s, dose 0.06% w/v, contact 45 s, 20% EtOH) was 0.9. It also gave a log reduction at 0.07 % strength (E. coli ATCC 10536; Escherichia coli, ATCC10536, 45 s, dose 0.070 % w/v, 45 s, in 20% EtOH) of 2.4, a log reduction at 0.07 % strength (E. coli ATCC 10536; Escherichia coli, ATCC10536, 45 s, dose 0.07% w/v, contact 45 s, 20% EtOH) of 2.8 and a log reduction at 0.08 % strength (E. coli ATCC 10536; Escherichia coli, ATCC10536, 45 s, dose 0.080 % w/v, 45 s, in 20% EtOH) of 6.4. The log reduction at 0.08 % strength (E. coli ATCC 10536; Escherichia coli, ATCC10536, 45 s, dose 0.08% w/v, contact 45 s, 20% EtOH) was 6.1, the log reduction at 0.09 % strength (E. coli ATCC 10536; Escherichia coli, ATCC10536, 45 s, dose 0.090 % w/v, 45 s, in 20% EtOH) was 7.1 and the log reduction at 0.09 % strength (E. coli ATCC 10536; Escherichia coli, ATCC10536, 45 s, dose 0.09% w/v, contact 45 s, 20% EtOH) was 7.3. For the same compound, the Log reduction (E. coli ATCC 10536; dose 0.050 % w/v, 45 s, in 20% EtOH) was 0.1, the log reduction at 0.08 % strength (S. aureus ATCC 6538; dose 0.080 % w/v) was 2.4 and the log reduction at 0.1 % strength (S. aureus ATCC 6538; dose 0.100 % w/v) was 5. For the same compound, the log reduction at 0.12 % strength (S. aureus ATCC 6538; dose 0.120 % w/v) was 6.6, the log reduction at 0.16 % strength (S. aureus ATCC 6538; dose 0.160 % w/v) was 7.2 and the log reduction at 0.2 % strength (S. aureus ATCC 6538; dose 0.200 % w/v, read-out: Log reduction) was 7. For the same compound, the log reduction at 0.05 % strength ([1]; Dose 0.05 % w/v) was 1.3, the log reduction at 0.055 % strength ([1]; Dose 0.055 % w/v) was 2.7 and the log reduction at 0.06 % strength ([1]; Dose 0.06 % w/v) was 2.8. It also gave a log reduction at 0.065 % strength ([1]; Dose 0.065 % w/v) of 4.7, a log reduction at 0.07 % strength ([1]; Dose 0.07 % w/v) of 5.2 and a log reduction at 0.04 % strength ([2]; Dose 0.04 % w/v) of 0.3. For the same compound, the log reduction at 0.05 % strength ([2]; Dose 0.05 % w/v, read-out: Log reduction) was 0.7, the log reduction at 0.06 % strength ([2]; Dose 0.06 % w/v) was 1.3 and the log reduction at 0.07 % strength ([2]; Dose 0.07 % w/v) was 2.2. It also gave a log reduction at 0.08 % strength ([2]; Dose 0.080 % w/v) of 5.8.
